molecular target: T1, Full-length USP19 (Homo sapiens, UniProt O94966); assay: USP19 fluorescence polarisation (FP) homogeneous assay with Ubiquitin-Lys-TAMRA substrate; assay type: biochemical; settings: 2.5 nM USP19, 30 min pre-incubation, average of at least two duplicate experiments
T1 construct: Full-length USP19 was purchased from Boston Biochem (E-576); purchased Boston Biochem E-576
T1 sequence (O94966 1-1318): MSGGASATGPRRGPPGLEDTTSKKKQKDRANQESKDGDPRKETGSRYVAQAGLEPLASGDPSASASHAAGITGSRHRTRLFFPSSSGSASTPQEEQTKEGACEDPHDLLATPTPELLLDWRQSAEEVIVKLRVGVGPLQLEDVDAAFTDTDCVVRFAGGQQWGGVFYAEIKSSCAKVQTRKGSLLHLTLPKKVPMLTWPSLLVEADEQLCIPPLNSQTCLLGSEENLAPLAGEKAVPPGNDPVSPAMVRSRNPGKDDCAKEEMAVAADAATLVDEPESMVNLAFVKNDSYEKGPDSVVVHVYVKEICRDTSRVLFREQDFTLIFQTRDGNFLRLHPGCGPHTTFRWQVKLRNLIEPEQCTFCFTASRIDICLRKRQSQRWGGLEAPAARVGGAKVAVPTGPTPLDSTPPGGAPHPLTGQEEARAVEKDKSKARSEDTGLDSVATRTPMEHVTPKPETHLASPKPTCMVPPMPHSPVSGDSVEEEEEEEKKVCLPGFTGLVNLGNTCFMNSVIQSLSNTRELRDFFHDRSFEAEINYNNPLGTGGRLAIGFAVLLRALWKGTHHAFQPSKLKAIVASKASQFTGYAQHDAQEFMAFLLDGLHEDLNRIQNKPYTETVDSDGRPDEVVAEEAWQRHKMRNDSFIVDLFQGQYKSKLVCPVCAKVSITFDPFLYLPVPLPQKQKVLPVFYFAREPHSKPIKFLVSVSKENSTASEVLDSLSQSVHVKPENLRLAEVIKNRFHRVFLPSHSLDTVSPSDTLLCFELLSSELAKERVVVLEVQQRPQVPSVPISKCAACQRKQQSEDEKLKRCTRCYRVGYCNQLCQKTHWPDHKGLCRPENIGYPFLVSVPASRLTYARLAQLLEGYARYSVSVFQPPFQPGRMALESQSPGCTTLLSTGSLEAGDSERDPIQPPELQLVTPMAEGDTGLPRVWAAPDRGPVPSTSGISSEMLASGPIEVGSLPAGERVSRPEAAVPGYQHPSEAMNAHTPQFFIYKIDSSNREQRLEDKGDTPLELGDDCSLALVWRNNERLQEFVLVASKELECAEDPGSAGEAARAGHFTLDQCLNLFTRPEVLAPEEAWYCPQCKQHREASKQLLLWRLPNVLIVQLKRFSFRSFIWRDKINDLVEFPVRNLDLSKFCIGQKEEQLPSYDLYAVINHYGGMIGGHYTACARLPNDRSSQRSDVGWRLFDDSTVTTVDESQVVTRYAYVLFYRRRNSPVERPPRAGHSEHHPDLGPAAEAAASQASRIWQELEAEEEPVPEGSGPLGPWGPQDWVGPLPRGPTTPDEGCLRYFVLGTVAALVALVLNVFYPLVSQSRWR
Procedure, shortened: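 Full-length USP19 preincubated 30 min at RT with inhibitor (200 μM to 2 μM series, 8–18 points) before adding 500 nM Ubiquitin-Lys-TAMRA substrate.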

| Compound | IC50 [nM] |
| --- | --- |
| O=C(N1CC[C@@](O)(Cn2cnc(-c3cccs3)cc2=O)C2(CCCC2)C1)N1CCNC[C@H]1c1ccccc1 [Example 343, 3-(((S)-10-Hydroxy-7-((R)-2-phenylpiperazine-1-carbonyl)-7-azaspiro[4.5]decan-10-yl)methyl)-6-(thiophen-2-yl)pyri-midin-4(3H)-one] | < 500 |
| O=C(N1CC[C@@](O)(Cn2cnc(-c3ccsc3)cc2=O)C2(CCCC2)C1)N1CCNC[C@H]1c1ccccc1 [Example 344, 3-(((S)-10-Hydroxy-7-((R)-2-phenylpiperazine-1-carbonyl)-7-azaspiro[4.5]decan-10-yl)methyl)-6-(thio-phen-3-yl)pyrimidin-4(3H)-one] | < 500 |
| COc1ccc(-c2cc(=O)n(C[C@]3(O)CCN(C(=O)N4CCNC[C@H]4c4ccccc4)CC34CCCC4)cn2)s1 [Example 345, 3-(((S)-10-Hydroxy-7-((R)-2-phenylpiperazine-1-carbonyl)-7-azaspiro[4.5]decan-10-yl)methyl)-6-(5-methoxythiophen-2-yl)pyrimidin-4(3H)-one] | < 500 |
| O=C(N1CC[C@@](O)(Cn2cnc(-c3ccc4c(c3)CCO4)cc2=O)C2(CCCC2)C1)N1CCNC[C@H]1c1ccccc1 [Example 346, 6-(2,3-Dihydrobenzofuran-5-yl)-3-(((S)-10-hydroxy-7-((R)-2-phenylpiperazine-1-carbonyl)-7-aza-spiro[4.5]decan-10-yl)methyl)pyrimidin-4(3H)-one] | < 500 |
| O=C(N1CC[C@@](O)(Cn2cnc(-c3ccc4c(c3)COC4)cc2=O)C2(CCCC2)C1)N1CCNC[C@H]1c1ccccc1 [Example 347, 6-(1,3-Dihydro-isobenzofuran-5-yl)-3-(((S)-10-hydroxy-7-((R)-2-phenylpiperazine-1-carbonyl)-7-aza-spiro[4.5]decan-10-yl)methyl)pyrimidin-4(3H)-one] | < 500 |
| O=C(N1CC[C@@](O)(Cn2cnc(N3CCCCC3)cc2=O)C2(CCCC2)C1)N1CCNC[C@H]1c1ccccc1 [Example 348, 3-(((S)-10-Hydroxy-7-((R)-2-phenylpiperazine-1-carbonyl)-7-aza-spiro[4.5]decan-10-yl)methyl)-6-(piperi-din-1-yl)pyrimidin-4(3H)-one] | < 500 |
| O=C(N1CC[C@@](O)(Cn2cnc(-c3ccc(Cl)cc3)cc2=O)C2(CCCC2)C1)N1CCNC[C@H]1c1ccccc1 [Example 349, 6-(4-Chlorophenyl)-3-(((S)-10-hydroxy-7-((R)-2-phenylpiperazine-1-carbonyl)-7-aza-spiro[4.5]decan-10-yl)methyl)pyrimidin-4(3H)-one] | < 500 |
| O=C(N1CC[C@@](O)(Cn2cnc(-c3ccc(OC4CC4)cc3)cc2=O)C2(CCCC2)C1)N1CCNC[C@H]1c1ccccc1 [Example 350, 6-(4-Cyclo-propoxyphenyl)-3-(((S)-10-hydroxy-7-((R)-2-phenylpipera-zine-1-carbonyl)-7-azaspiro[4.5]decan-10-yl)methyl)pyrimi-din-4(3H)-one] | < 500 |
| O=C(N1CC[C@@](O)(Cn2cnc(N3CCC(F)(F)CC3)cc2=O)C2(CCCC2)C1)N1CCNC[C@H]1c1ccccc1 [Example 351, 6-(4,4-Difluoro-piperidin-1-yl)-3-(((S)-10-hydroxy-7-((R)-2-phenylpiperazine-1-carbonyl)-7-aza-spiro[4.5]decan-10-yl)methyl)pyrimidin-4(3H)-one] | < 500 |
| O=C(N1CC[C@@](O)(Cn2cnc(N3CC4CC4C3)cc2=O)C2(CCCC2)C1)N1CCNC[C@H]1c1ccccc1 (stereo partly drawn) [Example 352, 6-(3-Aza-bicyclo[3.1.0]hexan-3-yl)-3-(((S)-10-hydroxy-7-((R)-2-phenylpiperazine-1-carbonyl)-7-aza-spiro[4.5]decan-10-yl)methyl)pyrimidin-4(3H)-one] | < 500 |
| O=C(N1CC[C@@](O)(Cn2cnc(-c3ccc4c(c3)OCC4)cc2=O)C2(CCCC2)C1)N1CCNC[C@H]1c1ccccc1 [Example 353, 6-(2,3-Dihydrobenzofuran-6-yl)-3-(((S)-10-hy-droxy-7-((R)-2-phenylpiperazine-1-carbonyl)-7-aza-spiro[4.5]decan-10-yl)methyl)pyrimidin-4(3H)-one] | < 500 |
| O=C(N1CC[C@@](O)(Cn2cnc(-c3ccccc3OC(F)(F)F)cc2=O)C2(CCCC2)C1)N1CCNC[C@H]1c1ccccc1 [Example 354, 3-(((S)-10-Hydroxy-7-((R)-2-phenylpiperazine-1-carbonyl)-7-azaspiro[4.5]decan-10-yl)methyl)-6-(2-(trifluorometh-oxy)phenyl) pyrimidin-4(3H)-one] | < 500 |
| O=C(N1CC[C@@](O)(Cn2cnc(-c3ccccc3F)cc2=O)C2(CCCC2)C1)N1CCNC[C@H]1c1cccc(F)c1 [Example 355, 6-(2-Fluorophenyl)-3-(((S)-7-((R)-2-(3-fluorophenyl)pipera-zine-1-carbonyl)-10-hydroxy-7-aza-spiro[4.5]decan-10-yl)methyl)pyrimidin-4(3H)-one] | < 500 |
| COc1ccccc1-c1cc(=O)n(C[C@]2(O)CCN(C(=O)N3CCNC[C@H]3c3cccc(F)c3)CC23CCCC3)cn1 [Example 356, 3-(((S)-7-((R)-2-(3-Fluorophenyl)pipera-zine-1-carbonyl)-10-hydroxy-7-azaspiro[4.5]decan-10-yl)methyl)-6-(2-methoxyphenyl)pyri-midin-4(3H)-one] | < 500 |

Further lines, results first:

| IC50 [nM] | Compound |
| --- | --- |
| < 500 | O=C(N1CC[C@@](O)(Cn2cnc(-c3ccccc3)cc2=O)C2(CCCC2)C1)N1CCS(=O)(=O)CC1c1ccccc1 (stereo partly drawn) [Example 335, (S)-3-((7-(1,1-Dioxido-3-phenylthiomorpholine-4-carbonyl)-10-hydroxy-7-azaspiro[4.5]decan-10-yl)methyl)-6-phenylpyrimidin-4(3H)-one] |
| < 500 | O=C(N1CC[C@@](O)(Cn2cnc(-c3ccccc3)cc2=O)C2(CCCC2)C1)N1CCNCC1c1ccc(C(F)(F)F)cc1 (stereo partly drawn) [Example 336, 3-(((10S)-10-Hydroxy-7-(2-(4-(trifluoromethyl)phenyl)piperazine-1-carbonyl)-7-azaspiro[4.5]decan-10-yl)methyl)-6-phenylpyrimidin-4(3H)-one] |
| < 500 | O=C(N1CC[C@@](O)(Cn2cnc(-c3ccccc3)cc2=O)C2(CCCC2)C1)N1CCNCC1c1ccsc1 (stereo partly drawn) [Example 337, 3-(((10S)-10-Hydroxy-7-(2-(thiophen-3-yl)piperazine-1-carbonyl)-7-azaspiro[4.5]decan-10-yl)methyl)-6-phenylpyrimidin-4(3H)-one] |
| < 500 | COc1cccc(-c2cc(=O)n(C[C@]3(O)CCN(C(=O)N4CCNC[C@H]4c4ccccc4)CC34CCCC4)cn2)c1 [Example 338, 3-(((S)-10-Hydroxy-7-((R)-2-phenylpiperazine-1-carbonyl)-7-azaspiro[4.5]decan-10-yl)methyl)-6-(3-methoxyphenyl) pyrimidin-4(3H)-one] |
| < 500 | COc1ccc(-c2cc(=O)n(C[C@]3(O)CCN(C(=O)N4CCNC[C@H]4c4ccccc4)CC34CCCC4)cn2)cc1 [Example 339, 3-(((S)-10-Hydroxy-7-((R)-2-phenylpiperazine-1-carbonyl)-7-azaspiro[4.5]decan-10-yl)methyl)-6-(4-methoxyphenyl) pyrimidin-4(3H)-one] |
| < 500 | Cc1ccccc1-c1cc(=O)n(C[C@]2(O)CCN(C(=O)N3CCNC[C@H]3c3ccccc3)CC23CCCC3)cn1 [Example 340, 3-(((S)-10-Hydroxy-7-((R)-2-phenylpiperazine-1-carbonyl)-7-azaspiro[4.5]decan-10-yl)methyl)-6-(o-tolyl)pyrimidin-4(3H)-one] |
| < 500 | Cc1cccc(-c2cc(=O)n(C[C@]3(O)CCN(C(=O)N4CCNC[C@H]4c4ccccc4)CC34CCCC4)cn2)c1 [Example 341, 3-(((S)-10-Hydroxy-7-((R)-2-phenylpiperazine-1-carbonyl)-7-azaspiro[4.5]decan-10-yl)methyl)-6-(m-tolyl)pyrimidin-4(3H)-one] |
| < 500 | Cc1ccc(-c2cc(=O)n(C[C@]3(O)CCN(C(=O)N4CCNC[C@H]4c4ccccc4)CC34CCCC4)cn2)cc1 [Example 342, 3-(((S)-10-Hydroxy-7-((R)-2-phenylpiperazine-1-carbonyl)-7-azaspiro[4.5]decan-10-yl)methyl)-6-(p-tolyl)pyrimidin-4(3H)-one] |
